Results as given in US20240140957A1, “BRIDGED COMPOUNDS AS KRAS G12D INHIBITOR AND DEGRADER AND THE USE THEREOF” (BeiGene Switzerland GmbH, priority 2021, published 2024).

These compounds were tested against GDP-loaded KRAS G12D (Homo sapiens, UniProt P01116, G12D) (assay: KRAS G12D Probe Displacement Assay). Conditions: KRAS G12D 0.5 nM, biotinylated probe 2 4 nM; Table 6 letters; read-out: KRAS G12D Probe Displacement Assay IC50 (class).
Chain of GDP-loaded KRAS G12D (P01116 1-188 isoform P01116-2 G12D): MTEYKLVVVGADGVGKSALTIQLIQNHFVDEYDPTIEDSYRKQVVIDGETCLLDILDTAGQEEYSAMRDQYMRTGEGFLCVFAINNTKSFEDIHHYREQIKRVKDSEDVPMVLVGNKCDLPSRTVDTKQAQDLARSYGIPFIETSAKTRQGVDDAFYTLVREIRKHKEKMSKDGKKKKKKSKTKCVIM
Assay type: binding
Compound Nc1nc2c(-c3c(C(F)(F)F)cc4c(N5CC6CCC(C5)N6)nc(OCC5CC(O)C5)nc4c3F)ccc(F)c2s1 (stereo not shown) [Example E173] has an IC50 of less than 50 nM. In the case of CC12CC(COc3nc(N4CC5CCC(C4)N5)c4cc(C(F)(F)F)c(-c5ccc(F)c6sc(N)nc56)c(F)c4n3)(CO1)C2 [Example E174, 4-(4-(3,8-diazabicyclo[3.2.1]octan-3-yl)-8-fluoro-2-((1-methyl-2-oxabicyclo[2.1.1]hexan-4-yl)methoxy)-6-(trifluoromethyl)quinazolin-7-yl)-7-fluorobenzo[d] thiazol-2-amine], the IC50 is reported as less than 50 nM. CS(=O)(=O)N1CC(COc2nc(N3CC4CCC(C3)N4)c3cc(C(F)(F)F)c(-c4ccc(F)c5sc(N)nc45)c(F)c3n2)C1 [Example E175, 4-(4-(3,8-diazabicyclo[3.2.1]octan-3-yl)-8-fluoro-2-((1-(methylsulfonyl)azetidin-3-yl)methoxy)-6-(trifluoromethyl)quinazolin-7-yl)-7-fluorobenzo[d]thiazol-2-amine] showed an IC50 of less than 50 nM. In the case of COC1(COc2nc(N3CC4CCC(C3)N4)c3cc(C(F)(F)F)c(-c4ccc(F)c5sc(N)nc45)c(F)c3n2)COC1 [Example E176, 4-(4-(3,8-diazabicyclo[3.2.1]octan-3-yl)-8-fluoro-2-((3-methoxyoxetan-3-yl)methoxy)-6-(trifluoromethyl)quinazolin-7-yl)-7-fluorobenzo[d] thiazol-2-amine], the IC50 is reported as less than 50 nM. With Nc1nc2c(-c3c(C(F)(F)F)cc4c(N5CC6CCC(C5)N6)nc(OC5CC(O)C5)nc4c3F)ccc(F)c2s1 (stereo not shown) [Example E177, 3-((7-(2-amino-7-fluorobenzo[d]thiazol-4-yl)-4-(3,8-diazabicyclo [3.2.1]octan-3-yl)-8-fluoro-6-(trifluoromethyl)quinazolin-2-yl)oxy)cyclobutan-1-ol] the IC50 was less than 50 nM. For CN1CCCC(C#N)(COc2nc(N3CC4CCC(C3)N4)c3cc(Cl)c(-c4ccc(F)c5sc(N)nc45)c(F)c3n2)C1 (stereo not shown) [Example E178, 3-(((7-(2-amino-7-fluorobenzo[d]thiazol-4-yl)-4-(3,8-diazabicyclo [3.2.1]octan-3-yl)-6-chloro-8-fluoroquinazolin-2-yl)oxy)methyl)-1-methylpiperidine-3-carbonitrile], the IC50 was less than 50 nM. In the case of Nc1nc2c(-c3c(C(F)(F)F)cc4c(N5CC6CCC(C5)N6)nc(OC[C@H]5CNC(=O)CO5)nc4c3F)ccc(F)c2s1 [Example E179, (6R)-6-(((7-(2-amino-7-fluorobenzo[d]thiazol-4-yl)-4-(3,8-diazabicyclo[3.2.1]octan-3-yl)-8-fluoro-6-(trifluoromethyl)quinazolin-2-yl)oxy)methyl)morpholin-3-one], the IC50 is reported as less than 50 nM. CC(F)(F)C1(COc2nc(N3CC4CCC(C3)N4)c3cc(C(F)(F)F)c(-c4ccc(F)c5sc(N)nc45)c(F)c3n2)COC1 [Example E180, 4-(4-(3,8-diazabicyclo[3.2.1]octan-3-yl)-2-((3-(1,1-difluoroethyl)oxetan-3-yl)methoxy)-8-fluoro-6-(trifluoromethyl)quinazolin-7-yl)-7-fluorobenzo[d]thiazol-2-amine] gave an IC50 of less than 50 nM. CC1(COc2nc(N3CC4CCC(C3)N4)c3cc(C(F)(F)F)c(-c4ccc(F)c5sc(N)nc45)c(F)c3n2)CCOC1 (stereo not shown) [Example E181, 4-(4-(3,8-diazabicyclo[3.2.1]octan-3-yl)-8-fluoro-2-((3-methyltetrahydrofuran-3-yl)methoxy)-6-(trifluoromethyl)quinazolin-7-yl)-7-fluorobenzo[d]thiazol-2-amine] showed an IC50 of less than 50 nM. Compound CC1(COc2nc(N3CC4CCC(C3)N4)c3cc(C(F)(F)F)c(-c4ccc(F)c5sc(N)nc45)c(F)c3n2)CCOCC1 [Example E182, 4-(4-(3,8-diazabicyclo[3.2.1]octan-3-yl)-8-fluoro-2-((4-methyltetra hydro-2H-pyran-4-yl)methoxy)-6-(trifluoromethyl)quinazolin-7-yl)-7-fluorobenzo[d]thiazol-2-amine] has an IC50 of less than 50 nM. CC1(COc2nc(N3CC4CCC(C3)N4)c3cc(C(F)(F)F)c(-c4ccc(F)c5sc(N)nc45)c(F)c3n2)CCCOC1 (stereo not shown) [Example E183, 4-(4-(3,8-diazabicyclo[3.2.1]octan-3-yl)-8-fluoro-2-((3-methyltetra hydro-2H-pyran-3-yl)methoxy)-6-(trifluoromethyl)quinazolin-7-yl)-7-fluorobenzo[d]thiazol-2-amine] showed an IC50 of less than 50 nM. In the case of Nc1nc2c(-c3c(C(F)(F)F)cc4c(N5CC6CCC(C5)N6)nc(OCCc5cccnc5)nc4c3F)ccc(F)c2s1 [Example E184, 4-(4-(3,8-diazabicyclo[3.2.1]octan-3-yl)-8-fluoro-2-(2-(pyridin-3-yl)ethoxy)-6-(trifluoromethyl)quinazolin-7-yl)-7-fluorobenzo [d]thiazol-2-amine], the IC50 is reported as less than 50 nM. In the case of Nc1nc2c(-c3c(C(F)(F)F)cc4c(N5CC6CCC(C5)N6)nc(OCCn5cccn5)nc4c3F)ccc(F)c2s1 [Example E185, 4-(2-(2-(1H-pyrazol-1-yl)ethoxy)-4-(3,8-diazabicyclo[3.2.1]octan-3-yl)-8-fluoro-6-(trifluoromethyl)quinazolin-7-yl)-7-fluorobenzo[d]thiazol-2-amine], the IC50 is reported as less than 50 nM. For N#CC12CC(COc3nc(N4CC5CCC(C4)N5)c4cc(C(F)(F)F)c(-c5ccc(F)c6sc(N)nc56)c(F)c4n3)(C1)C2 [Example E186, 3-(((7-(2-amino-7-fluorobenzo[d]thiazol-4-yl)-4-(3,8-diazabicyclo [3.2.1]octan-3-yl)-8-fluoro-6-(trifluoromethyl)quinazolin-2-yl)oxy)methyl)bicyclo[1.1.1] pentane-1-carbonitrile], the IC50 was less than 50 nM. Work on Nc1nc2c(-c3c(C(F)(F)F)cc4c(N5CC6CCC(C5)N6)nc(OCC5(CO)CCOCC5)nc4c3F)ccc(F)c2s1 [Example E187, (4-(((7-(2-amino-7-fluorobenzo[d]thiazol-4-yl)-4-(3,8-diazabicyclo[3.2.1]octan-3-yl)-8-fluoro-6-(trifluoromethyl)quinazolin-2-yl)oxy)methyl)tetrahydro-2H-pyran-4-yl)methanol] yielded an IC50 of less than 50 nM. Compound N#Cc1cncc(CCOc2nc(N3CC4CCC(C3)N4)c3cc(C(F)(F)F)c(-c4ccc(F)c5sc(N)nc45)c(F)c3n2)c1 [Example E188, 5-(2-((7-(2-amino-7-fluorobenzo[d]thiazol-4-yl)-4-(3,8-diazabicyclo[3.2.1]octan-3-yl)-8-fluoro-6-(trifluoromethyl)quinazolin-2-yl)oxy)ethyl) nicotinonitrile] has an IC50 of less than 50 nM. Compound Nc1nc2c(-c3c(C(F)(F)F)cc4c(N5CC6CCC(C5)N6)nc(OCCC5COC5)nc4c3F)ccc(F)c2s1 [Example E189, 4-(4-(3,8-diazabicyclo[3.2.1]octan-3-yl)-8-fluoro-2-(2-(oxetan-3-yl)ethoxy)-6-(trifluoromethyl)quinazolin-7-yl)-7-fluorobenzo[d]thiazol-2-amine] has an IC50 of less than 50 nM. For Nc1nc2c(-c3c(C(F)(F)F)cc4c(N5CC6CCC(C5)N6)nc(OCC5(CO)CCCC5)nc4c3F)ccc(F)c2s1 [Example E190, (1-(((7-(2-amino-7-fluorobenzo[d]thiazol-4-yl)-4-(3,8-diazabicyclo[3.2.1]octan-3-yl)-8-fluoro-6-(trifluoromethyl)quinazolin-2-yl)oxy)methyl)cyclopentyl)methanol], the IC50 was less than 50 nM. Nc1nc2c(-c3c(C(F)(F)F)cc4c(N5CC6CCC(C5)N6)nc(OCC5(CO)CCCCC5)nc4c3F)ccc(F)c2s1 [Example E191, (1-(((7-(2-amino-7-fluorobenzo[d]thiazol-4-yl)-4-(3,8-diazabicyclo[3.2.1]octan-3-yl)-8-fluoro-6-(trifluoromethyl)quinazolin-2-yl)oxy)methyl)cyclohexyl) methanol] was tested, and the IC50 was less than 50 nM. With N#CC1(COc2nc(N3CC4CCC(C3)N4)c3cc(C(F)(F)F)c(-c4ccc(F)c5sc(N)nc45)c(F)c3n2)CCCC1 [Example E192, 1-(((7-(2-amino-7-fluorobenzo[d]thiazol-4-yl)-4-(3,8-diazabicyclo [3.2.1]octan-3-yl)-8-fluoro-6-(trifluoromethyl)quinazolin-2-yl)oxy)methyl)cyclopentane-1-carbonitrile] the IC50 was less than 50 nM. Cc1cc(N)nc(-c2c(Cl)cc3c(N4CC5CCC(C4)N5)nc(OCC(C)(C)CO)nc3c2F)c1C(F)(F)F [Example E193, 3-((7-(6-amino-4-methyl-3-(trifluoromethyl)pyridin-2-yl)-4-(3,8-diazabicyclo[3.2.1]octan-3-yl)-6-chloro-8-fluoroquinazolin-2-yl)oxy)-2,2-dimethylpropan-1-ol] showed an IC50 of less than 50 nM. Cc1cc(N)nc(-c2c(Cl)cc3c(N4CC5CCC(C4)N5)nc(OCC(C)(C)C#N)nc3c2F)c1C(F)(F)F [Example E194, 3-((7-(6-amino-4-methyl-3-(trifluoromethyl)pyridin-2-yl)-4-(3,8-diazabicyclo[3.2.1]octan-3-yl)-6-chloro-8-fluoroquinazolin-2-yl)oxy)-2,2-dimethylpropanenitrile] gave an IC50 of less than 50 nM. Cc1cc(N)nc(-c2c(Cl)cc3c(N4CC5CCC(C4)N5)nc(OCC4(C#N)CCOCC4)nc3c2F)c1C(F)(F)F [Example E195, 4-(((7-(6-amino-4-methyl-3-(trifluoromethyl)pyridin-2-yl)-4-(3,8-diazabicyclo[3.2.1]octan-3-yl)-6-chloro-8-fluoroquinazolin-2-yl)oxy)methyl)tetrahydro-2H-pyran-4-carbonitrile] gave an IC50 of less than 50 nM. Cc1cc(N)nc(-c2c(Cl)cc3c(N4CC5CCC(C4)N5)nc(OCC4(CO)CCOCC4)nc3c2F)c1C(F)(F)F [Example E196, (4-(((7-(6-amino-4-methyl-3-(trifluoromethyl)pyridin-2-yl)-4-(3,8-diazabicyclo[3.2.1]octan-3-yl)-6-chloro-8-fluoroquinazolin-2-yl)oxy)methyl)tetrahydro-2H-pyran-4-yl)methanol] showed an IC50 of less than 50 nM. With Cc1cc(N)nc(-c2c(Cl)cc3c(N4CC5CCC(C4)N5)nc(OCC4(CO)CC4)nc3c2F)c1C(F)(F)F [Example E197, (1-(((7-(6-amino-4-methyl-3-(trifluoromethyl)pyridin-2-yl)-4-(3,8-diazabicyclo[3.2.1]octan-3-yl)-6-chloro-8-fluoroquinazolin-2-yl)oxy)methyl)cyclopropyl) methanol] the IC50 was less than 50 nM.
